“Also recorded” adds a separate entry of the source.
How the values were obtained:
[1] = system: U2OS cells; assay: Immunofluorescence of microtubules / mitotic spindle; type: cell-based, human; settings: 10 µM, 24-h incubation
Description: In addition, the presence of aster-like tubulin structures indicated the failure in microtubule elongation (Figure 4, ED5). […] The observed intracellular effects of ED3 and ED5 are consistent with data from in vitro assembly assays and cell cycle analyses, thereby strongly supporting the proposed antimitotic mechanisms of these EDs. […] Importantly, cytotoxic IC50 values may vary depending on the duration of exposure to the drug. A more extended exposure could lead to a decrease in the IC50 value, and vice versa. This temporal factor could also contribute to the observed differential sensitivity among the cell lines. The detailed mechanism and the extent to which these cellular and molecular dynamics (MD) contribute to the observed phenomenon might necessitate further investigation and experimentation.
U2OS cells, cultivated on coverslips, underwent a PBS wash and were then fixed in a solution of 3% paraformaldehyde in a buffer containing 10 mM MES, 150 mM NaCl, 5 mM EGTA, 5 mM MgCl2, 5 mM glucose, adjusted to a pH of 6.1. The nuclei were made visible using Hoechst 33342. Subsequently, a 60-min blocking step with 5% goat serum in PBS (SpinChem, Seattle, WA) was followed by a 60-min incubation with α-tubulin (DM1A) mouse monoclonal antibody (Cell Signaling, Danvers, MA) in PBS supplemented with 1% BSA and 0.3% Triton X-100. Visualisation was achieved using Alexa Fluor-488 conjugated anti-mouse antibodies (Life Technologies, Carlsbad, CA). Between each step, the samples underwent a series of three 5-min washes with PBS. Finally, the samples were mounted using Vectashield Mounting Medium with DAPI and imaged utilising a Zeiss spinning disk confocal microscope equipped with CSU-X1 unit (Yokogawa, Musashino, Japan)[10].

[2] = system: CCRF-CEM lymphoblasts; assay: Phospho-histone H3 (Ser10) mitotic marker, flow cytometry; type: cell-based, human
How it was run: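 Mitotic fraction scored by flow cytometry (488 nm) using Ser10-phosphorylated histone H3 antibody plus propidium iodide DNA stain, following RNase. CCRF-CEM lymphoblasts had 24 h compound exposure before ethanol fixation and Triton X-100 permeabilisation; events below G1 DNA content classed as fragmented-DNA, non-viable cells.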

[3] = system: CCRF-CEM lymphoblasts; assay: BrDU incorporation analysis (DNA synthesis); type: cell-based, human
How it was run: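 Percentage of BrDU-incorporating cells was measured by flow cytometry after anti-BrdU/FITC and propidium iodide staining. Before that, CCRF-CEM lymphoblasts treated 24 h with compound received a 30-min 10 μM BrDU pulse, then ethanol fixation and 2 M HCl denaturation.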

[4] = target: T1, porcine brain tubulin (Sus scrofa, UniProt P02550+P02554); assay: Tubulin polymerisation assay; type: biochemical; settings: for inhibitory activity against tubulin polymerisation (in words): 10 μmol/L, Vmax relative to DMSO; for IC50: dose-response, mean ± SD of two independent experiments, read-out: IC50 inhibition of tubulin assembly; for inhibition at 10 µM: read-out: Tubulin polymerisation inhibition
T1 construct: purchased Cytoskeleton, Denver, CO; host or cells: porcine brain (tissue-purified)
How it was run: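 Test compounds (10 μmol/L) or DMSO vehicle added to >99% pure porcine brain tubulin. Polymerisation read at 37 °C on a plate reader, and Vmax taken from each curve.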

[5] = system: U2OS (osteosarcoma); assay: MTS cytotoxicity assay, U2OS; type: cell-based, human; settings: MTS assay, 72-h incubation, mean ± SD of 3 independent experiments; for IC50: Homo sapiens, U2OS, read-out: IC50 cytotoxic activity U2OS
How it was run: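 MTS read-out after 72 h compound exposure at 37 °C. Cells plated the day before, treated with fourfold serial dilutions from DMSO stocks; duplicate wells, three independent experiments.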

T1 sequence (P02550 whole entry): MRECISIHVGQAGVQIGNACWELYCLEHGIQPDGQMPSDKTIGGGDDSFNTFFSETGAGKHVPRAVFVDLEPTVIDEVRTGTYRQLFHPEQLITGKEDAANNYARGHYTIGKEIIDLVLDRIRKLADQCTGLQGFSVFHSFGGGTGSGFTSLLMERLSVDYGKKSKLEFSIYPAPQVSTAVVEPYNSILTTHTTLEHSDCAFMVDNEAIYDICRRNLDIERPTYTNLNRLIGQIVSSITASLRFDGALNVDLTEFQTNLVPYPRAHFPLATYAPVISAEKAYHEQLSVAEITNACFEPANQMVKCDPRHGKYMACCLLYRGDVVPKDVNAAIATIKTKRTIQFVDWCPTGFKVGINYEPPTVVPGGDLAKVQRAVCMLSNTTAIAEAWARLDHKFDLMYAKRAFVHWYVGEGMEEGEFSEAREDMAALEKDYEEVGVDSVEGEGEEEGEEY
T1 sequence (P02554 whole entry): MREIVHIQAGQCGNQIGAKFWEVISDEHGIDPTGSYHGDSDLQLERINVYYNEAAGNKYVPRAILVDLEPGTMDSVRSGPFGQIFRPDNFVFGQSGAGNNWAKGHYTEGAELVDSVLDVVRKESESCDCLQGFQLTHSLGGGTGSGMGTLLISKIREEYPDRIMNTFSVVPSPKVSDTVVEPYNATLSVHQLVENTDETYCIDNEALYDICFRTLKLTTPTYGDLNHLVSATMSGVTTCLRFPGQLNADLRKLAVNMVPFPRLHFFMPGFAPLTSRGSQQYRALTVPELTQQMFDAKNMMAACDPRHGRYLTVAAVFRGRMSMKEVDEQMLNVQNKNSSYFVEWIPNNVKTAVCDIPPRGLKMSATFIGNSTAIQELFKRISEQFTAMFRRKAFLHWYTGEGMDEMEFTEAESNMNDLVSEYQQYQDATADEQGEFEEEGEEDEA

SMILES | microtubule organisation in mitotic cells (in words) [1] | mitosis-specific phosphorylation of histone H3 (in words) ([2]; 1× and 5×IC50, 24 h) | pH3Ser10, % of positive cells ([2]; 1×IC50, 24 h) | pH3Ser10, % of positive cells ([2]; 5×IC50, 24 h) | BrDU, % of positive cells ([3]; 1×IC50, 24 h) | BrDU, % of positive cells ([3]; 5×IC50, 24 h) | inhibitory activity against tubulin polymerisation (in words) [4] | IC50 [4] | inhibition at 10 µM [4] | IC50 [5] | IC50 cytotoxic activity U2OS [5]
COc1cc(Cn2cc([C@]3(O)CC[C@H]4[C@@H]5CCc6cc(O)ccc6[C@H]5CC[C@@]43C)nn2)cc(Cn2cc([C@]3(O)CC[C@H]4[C@@H]5CCc6cc(O)ccc6[C@H]5CC[C@@]43C)nn2)c1 [ED3, (17β,17′β)-17,17′-[(5-Methoxybenzene-1,3-diyl)bis(methanediyl-1H-1,2,3-triazole-1,4-diyl)]bisestra-1,3,5(10)-triene-3,17-diol] | disruption in microtubule organisation | did not induce an increase of mitosis-specific phosphorylation of histone H3 | 1.43% | 0.77% | 7.81% | 3.23% | comparable or better inhibitory activity | 2.24 ± 1.54 µM | 31.6% | 0.61 ± 0.033 µM | –
C[C@]12CC[C@@H]3c4ccc(O)cc4CC[C@H]3[C@@H]1CC[C@@]2(O)c1cn(Cc2cc(Cn3cc([C@]4(O)CC[C@H]5[C@@H]6CCc7cc(O)ccc7[C@H]6CC[C@@]54C)nn3)cc(OCCO)c2)nn1 [ED5, (17β,17′β)-17,17′-{[5-(2-Hydroxyethoxy)benzene-1,3-diyl]bis(methanediyl-1H-1,2,3-triazole-1,4-diyl)}bisestra-1,3,5(10)-triene-3,17-diol] | disruption in microtubule organisation | – | 6.27% | 0.34% | 32.15% | 9.59% | comparable or better inhibitory activity; also recorded: most potent inhibitor of in vitro tubulin polymerisation | 2.01 ± 0.21 µM | 70.2% | > 50 µM | did not exhibit activity
C[C@]12CC[C@@H]3c4ccc(O)cc4CC[C@H]3[C@@H]1CC[C@@]2(O)c1cn(Cc2cccc(Cn3cc([C@]4(O)CC[C@H]5[C@@H]6CCc7cc(O)ccc7[C@H]6CC[C@@]54C)nn3)n2)nn1 [ED, reference compound] | disruption in microtubule organisation | – | 8.08% | 48.71% | 19.54% | 15.94% | – | 2.18 ± 1.8 µM | 55.6% | 6.23 ± 0.7 µM | –

From PMC467089, “Click estradiol dimers with novel aromatic bridging units: synthesis and anticancer evaluation” (Journal of Enzyme Inhibition and Medicinal Chemistry, 2024)
